Measured values: EP0169785A1, “Use of 1,8,9-triacetoxy-anthracene as the active ingredient in the preparation of an antitumoral pharmaceutical compound” (CENTRE INTERNATIONAL DE RECHERCHES DERMATOLOGIQUES C.I.R.D. …, priority 1984, dated 1986)

Experiments:
[1] = tested on: cellules de mélanocarcinome B 16; test: Anti-tumour activity against intraperitoneally implanted B 16 melanocarcinoma in mice (median survival time); assay type: in vivo, souris; conditions: for Temps médian de survie (en jours) Animaux testés T / T/C X 100: intraperitoneal; for Temps médian de survie (en jours) Animaux testés T: daily for 9 days after tumour implantation, controls C 15,4 days; for T/C X 100: active when ratio above 125
Experimental: EXEMPLE 5 - Etude de l'activité anti-tumorale vis-à-vis des cellules de mélanocarcinome B 16.
Le principe du test est le suivant : On a implanté, chez la souris, par injection intrapériotonéale au jour 0, 0,5 ml d'un homogénéisat dilué (1/10) des cellules tumorales.
Le traitement consiste à administrer le produit étudié, quotidiennement, par voie intrapéritonéale, pendant les 9 jours suivant l'implantation de la tumeur.
Ou considère qu'un produit est actif, selon ce test, lorsque le rapport [formula] est supérieur à 125.

[2] = tested on: cellules leucémiques lymphocytiques P 388; test: Anti-tumour activity against intraperitoneally implanted P 388 lymphocytic leukaemia in mice (median survival time); assay type: in vivo, souris; conditions: for Temps médian de survie (en jours) Animaux testés T / T/C x 100: intraperitoneal; for Temps médian de survie (en jours) Animaux testés T: daily for 5 days after tumour implantation, controls C 9,9 days; for T/C x 100: active when ratio above 120
Experimental: EXEMPLE 4 - Etude de l'activité anti-tumorale vis-à-vis des cellules leucémiques lymphocytiques P 388.
Le principe du test est le suivant : On implante chez la souris, au jour zéro, une tumeur, par injection intrapéritonéale de 10^6 cellules tumorales dans 0,1 ml de fluide ascitique dilué. Le traitement consiste à administrer quotidiennement le produit étudié, par voie intrapéritonéale pendant les 5 jours suivant l'implantation de la tumeur.
On considère que le produit est actif selon ce test, lorsque le rapport [formula] est supérieur à 120.

[3] = Solubility (qualitative description); assay type: physicochemical; conditions: solvents named

Compound: CC(=O)Oc1cccc2cc3cccc(OC(C)=O)c3c(OC(C)=O)c12 [composé de formule I, triacétoxy-1,8,9 anthracène]
- Temps médian de survie (en jours) Animaux testés T ([1]; 0,75 mg/kg): 19,7 jours
- T/C X 100 ([1]; 0,75 mg/kg, daily for 9 days): 127
- Temps médian de survie (en jours) Animaux testés T ([1]; 3 mg/kg): 20 jours
- T/C X 100 ([1]; 3 mg/kg, daily for 9 days): 129
- Temps médian de survie (en jours) Animaux testés T ([1]; 1,5 mg/kg): 23 jours
- T/C X 100 ([1]; 1,5 mg/kg, daily for 9 days): 149
- dose optimale ([1]; B 16, intraperitoneal, daily for 9 days): ~1,50 mg/kg
- Temps médian de survie (en jours) Animaux testés T ([2]; 0,79 mg/kg): 12,3 jours
- T/C x 100 ([2]; 0,79 mg/kg, daily for 5 days): 124
- Temps médian de survie (en jours) Animaux testés T ([2]; 1,56 mg/kg): 13,3 jours
- T/C x 100 ([2]; 1,56 mg/kg, daily for 5 days): 134
- Temps médian de survie (en jours) Animaux testés T ([2]; 3,12 mg/kg): 13 jours
- T/C x 100 ([2]; 3,12 mg/kg, daily for 5 days): 131
- minimal effective dose ([2]; Mus musculus, P388, ip, 120 h, P 388, intraperitoneal, daily for 5 days, dose at which the compound is active (T/C x 100 above 120), read-out: actif à la dose de): ~0.8 mg/kg
- dose optimale ([2]; P 388, intraperitoneal, daily for 5 days): ~1,56 mg/kg
- solubilité [3]: soluble notamment dans les alcools et l'acétone
